Experimental data from article PMC6045348 (ACS Omega, 2018).

Target: Ser–Thr PP-1 catalytic subunit (PP1c) (Oryctolagus cuniculus, UniProt P62139)
Experiment: DiFMUP fluorescence phosphatase assay, residual activity […] at […]
Type: biochemical

Sequence of Ser–Thr PP-1 catalytic subunit (PP1c) (P62139 2-330): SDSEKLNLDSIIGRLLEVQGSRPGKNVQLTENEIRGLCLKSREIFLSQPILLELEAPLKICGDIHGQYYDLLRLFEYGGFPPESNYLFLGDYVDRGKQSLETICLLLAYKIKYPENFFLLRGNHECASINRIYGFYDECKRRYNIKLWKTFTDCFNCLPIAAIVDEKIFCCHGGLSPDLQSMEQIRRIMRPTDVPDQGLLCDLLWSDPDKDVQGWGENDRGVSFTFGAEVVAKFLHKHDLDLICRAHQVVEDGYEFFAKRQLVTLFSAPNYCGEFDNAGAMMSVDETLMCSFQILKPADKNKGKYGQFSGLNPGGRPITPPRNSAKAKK

IC50: ~10 µM
SMILES: CN1C[C@@H](c2c[nH]c3cc(Br)ccc23)NC[C@@H]1c1c[nH]c2cc(Br)ccc12 [compound 3, dragmacidin A]
